Molecules are shown by their SMILES.

The assay concerns the target T1, α2 adrenergic receptors (Homo sapiens, UniProt P08913).
T1 construct: from tissue; host or cells: human platelets
T1 sequence (P08913 1-465): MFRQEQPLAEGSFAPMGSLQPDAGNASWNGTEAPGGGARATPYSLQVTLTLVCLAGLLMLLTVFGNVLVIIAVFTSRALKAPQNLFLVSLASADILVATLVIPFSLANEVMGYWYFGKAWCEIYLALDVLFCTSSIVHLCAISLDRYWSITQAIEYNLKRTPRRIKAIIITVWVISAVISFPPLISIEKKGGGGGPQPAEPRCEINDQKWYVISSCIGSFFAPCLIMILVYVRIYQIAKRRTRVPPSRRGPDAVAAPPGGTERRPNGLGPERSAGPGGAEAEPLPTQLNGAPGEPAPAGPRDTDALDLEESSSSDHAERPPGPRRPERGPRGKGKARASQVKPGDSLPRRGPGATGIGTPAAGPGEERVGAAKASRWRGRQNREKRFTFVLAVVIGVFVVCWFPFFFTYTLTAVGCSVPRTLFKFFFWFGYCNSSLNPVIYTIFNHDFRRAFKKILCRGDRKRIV
Description: α2 adrenergic receptor binding, [3H]-rauwolscine, human platelets. The following applies: human platelets; read-out: IC50, 50% inhibition of [3H]-rauwolscine specific binding. An excerpt: The antagonist [^3H]-rauwolscine was used as marker of the receptor, being its binding reversible, saturable and specific.

Consider `CNC1CCc2c(ccc(OC(=O)C(C)C)c2OC(=O)C(C)C)C1` (stereo not shown) [CHF 1035, 5,6-Diisobutyroyloxy-2-methylaminotetralin], for which the IC50 was determined as 27 µM.

Usually IC50 stands for the concentration at which inhibition is half-maximal.
